Like-named read-outs stand apart in the source and are kept apart here.
Legend:
Type in all cases: biochemical
Human spleen cathepsin S = molecular target: T1, Human spleen cathepsin S (Homo sapiens, UniProt P25774); assay: Cathepsin S assay, IC50 determination
T1 construct: Human spleen cathepsin S (Calbiochem 219344, 40 ng/mL); purchased Calbiochem 219344; host or cells: human spleen
Experimental: (§1) Human spleen cathepsin S (Calbiochem 219344, 40 ng/mL) was assayed using 15 microM Z-Phe-Arg-AMC substrate. Human liver cathepsin B (Calbiochem 219362, 65 ng/mL) was assayed using 15 microM Z-Arg-Arg-AMC substrate (Bachem I-1135). All reactions were performed in 20 mM sodium acetate buffer containing 1 mM EDTA and 5 mM cysteine, pH 5.5.
(§2) Compounds were serially diluted in DMSO and transferred into a 96-well Corning 3686 assay microplate to give a 16-point two-fold serial dilution dose response ranging from 25 microM to 760 pM. Human liver cathepsin L (Calbiochem 219402) was activated by incubating with assay buffer for 30 min. Upon activation, cathepsin L (300 pM, 8.7 ng/mL) was incubated with 1 microM Z-Phe-Arg-AMC substrate (Sigma C9521) and test compound in […] of assay buffer for 1 hour at room temperature. Fluorescence of AMC released by enzyme-catalyzed hydrolysis of Z-Phe-Arg-AMC was read on a PerkinElmer Envision microplate reader (excitation 355 nm, emission 460 nm). Data were scaled using internal controls and fitted to a four-parameter logistic model (IDBS XLfit equation 205) to obtain IC50 values in triplicate.
(§3) Compound No. 1 was assayed for inhibition against papain and cathepsins B, G, K, S, and V. Papain from Carica papaya (Calbiochem 5125, 11 ng/mL), human cathepsin K (Calbiochem 342001, 35 ng/mL), human spleen cathepsin S (Calbiochem 219344, 40 ng/mL), and human cathepsin V (Calbiochem 219467, 39 ng/ml) were assayed using Z-Phe-Arg-AMC substrate at 20 μM, 20 μM, 15 μM, and 1 μM, respectively. Human liver cathepsin B (Calbiochem 219362, 65 ng/mL) was assayed using 15 μM Z-Arg-Arg-AMC substrate (Bachem I-1135). Human neutrophil cathepsin G (Calbiochem 219373, 4.2 μg/mL) was assayed using 15 μM Suc-Ala-Ala-Pro-Phe-AMC substrate (Sigma S9761). All reactions were performed in 20 mM sodium acetate buffer containing 5 mM cysteine and 1 mM EDTA, pH 5.5. Reaction progress was monitored using the Envision microplate reader. IC50 values were measured in triplicate.

Human liver cathepsin B = molecular target: T2, Human liver cathepsin B (Homo sapiens, UniProt P07858); assay: Cathepsin B assay, IC50 determination
T2 construct: Human liver cathepsin B (Calbiochem 219362, 65 ng/mL); purchased Calbiochem 219362; host or cells: human liver
Experimental: as §1, §2, §3

human liver cathepsin L = molecular target: T3, human liver cathepsin L (Homo sapiens, UniProt P07711); assay: Cathepsin L assay, IC50 determination
T3 construct: 8.7 ng/mL human liver cathepsin L (Calbiochem 219402); purchased Calbiochem 219402; host or cells: human liver
T3 sequence (P07711 114-288 limits assumed): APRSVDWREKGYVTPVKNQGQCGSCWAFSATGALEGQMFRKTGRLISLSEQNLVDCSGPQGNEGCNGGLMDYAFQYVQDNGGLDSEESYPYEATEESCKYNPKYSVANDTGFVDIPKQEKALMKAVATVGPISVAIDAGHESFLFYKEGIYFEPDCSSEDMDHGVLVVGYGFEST
T3 sequence (P07711 292-333 limits assumed): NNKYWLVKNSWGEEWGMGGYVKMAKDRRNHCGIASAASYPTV
Experimental: Assay buffer consisted of 20 mM sodium acetate, 1 mM ethylenediaminetetraacetic acid (EDTA) and 5 mM cysteine, pH 5.5. Cathepsin L was incubated in assay buffer for 30 minutes prior to dispensing into wells to allow for efficient reduction of the active site cysteine required for full enzymatic activity.
Upon activation, cathepsin L (300 pM, 8.7 ng/mL) was incubated with 1 microM Z-Phe-Arg-AMC substrate (Sigma C9521) and test compound in […] of assay buffer for 1 hour at room temperature.
All reactions were performed in 20 mM sodium acetate buffer containing 5 mM cysteine and 1 mM EDTA, pH 5.5. Reaction progress was monitored using the Envision microplate reader. IC50 values were measured in triplicate.

T1 sequence (P25774 115-331): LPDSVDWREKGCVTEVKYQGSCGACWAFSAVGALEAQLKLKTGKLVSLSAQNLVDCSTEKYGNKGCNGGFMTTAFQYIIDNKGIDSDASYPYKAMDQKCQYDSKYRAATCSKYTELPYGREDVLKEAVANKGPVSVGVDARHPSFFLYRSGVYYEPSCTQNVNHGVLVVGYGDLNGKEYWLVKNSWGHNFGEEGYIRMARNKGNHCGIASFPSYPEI

IC50 (Human spleen cathepsin S; Tables 2-11, read-out: Cat S) [µM] | IC50 (Human liver cathepsin B; Tables 2-11, read-out: Cat B) [µM] | IC50 (human liver cathepsin L; Tables 2-11, read-out: Cat L) [µM] | IC50 (Human spleen cathepsin S; Table 1, read-out: IC50 Cat S) [µM] | IC50 (Human liver cathepsin B; Table 1, read-out: IC50 Cat B) [µM] | IC50 (human liver cathepsin L; Table 1, read-out: IC50 Cat L) [µM] | Structure (SMILES)
≥ 25 | ≥ 25 | ≥ 25 | – | – | – | CC(C)(C)OC(=O)N[C@H](Cc1c[nH]c2ccccc12)C(=O)NN [Compound No. 119]
– | – | – | 3.98 | 3.03 | 1.56 | CC(C)(C)OC(=O)N[C@@H](Cc1ccc(OCc2ccccc2)cc1)C(=O)NNC(=O)SCC(=O)N1CCOc2ccccc21 [Compound No. 41]
≥ 25 | ≥ 25 | ≥ 25 | – | – | – | CSCC[C@H](NC(=O)OC(C)(C)C)C(=O)NNC(=S)SCC(=O)N1CCc2ccccc21 [Compound No. 126]
– | – | – | 1.64 | 2.72 | 1.64 | CC(C)C[C@H](NC(=O)OC(C)(C)C)C(=O)NNC(=O)SCC(=O)N1CCCc2ccccc21 [Compound No. 31]
– | – | – | 2.41 | > 25 | 5.52 | CCc1ccccc1NC(=O)CSC(=O)NNC(=O)C[C@H](CCSC)NC(=O)OC(C)(C)C [Compound No. 76]
– | – | – | 0.63 | 2.21 | 1.34 | CSCC[C@H](NC(=O)OC(C)(C)C)C(=O)NNC(=O)SCC(=O)N1CCCc2ccccc21 [Compound No. 18]
– | – | – | 2.08 | 2.77 | 0.59 | CC(C)(C)OC(=O)N[C@@H](Cc1ccc(OCc2ccccc2)cc1)C(=O)NNC(=O)SCC(=O)Nc1ccccc1[N+](=O)[O-] [Compound No. 38]
– | – | – | > 25 | > 25 | > 25 | CCc1ccccc1NC(=O)CSC(=O)NNC(=O)[C@H](C)CO [Compound No. 67]
≥ 25 | ≥ 25 | ≥ 25 | – | – | – | CC(C)(C)OC(=O)N[C@@H](Cc1c[nH]c2ccccc12)C(=O)NOCC(=O)N1CCCc2ccccc21 [Compound No. 120]
– | – | – | 8 | 3.12 | 0.7 | CC(C)(C)OC(=O)N[C@@H](Cc1ccc(OCc2ccccc2)cc1)C(=O)NNC(=O)SCC(=O)N1CCc2ccccc21 [Compound No. 40]
– | – | – | 0.32 | 6.59 | 0.029 | CC(C)(C)OC(=O)N[C@@H](Cc1c[nH]c2ccccc12)C(=O)NNC(=O)SCC(=O)NCCc1ccccc1 [Compound No. 7]
≥ 25 | ≥ 25 | ≥ 25 | – | – | – | CCOC(=O)NNC(=O)[C@H](Cc1c[nH]c2ccccc12)NC(=O)OC(C)(C)C [Compound No. 95]
– | – | – | > 25 | > 25 | > 25 | CCc1ccccc1NC(=O)CSC(=O)NNC(=O)C[C@H](C)NC(=O)OC(C)(C)C [Compound No. 74]
– | – | – | 5.95 | > 25 | 2.12 | CC(C)(C)OC(=O)N[C@@H](COCc1ccccc1)CC(=O)NNC(=O)SCC(=O)N1CCCc2ccccc21 [Compound No. 83]
– | – | – | > 25 | > 25 | > 25 | CCc1ccccc1NC(=O)CSC(=O)NNC(=O)CCc1c[nH]c2ccccc12 [Compound No. 73]
– | – | – | 0.62 | > 25 | 0.11 | CC(C)[C@H](NC(=O)OC(C)(C)C)C(=O)NNC(=O)SCC(=O)Nc1ccc2c(c1)CCCC2 [Compound No. 24]
– | – | – | 0.92 | > 25 | 0.38 | CC(C)(C)OC(=O)N[C@@H](COCc1ccccc1)C(=O)NNC(=O)SCC(=O)NCCc1c[nH]c2ccccc12 [Compound No. 53]
0.062 | ≥ 25 | 0.011 | – | – | – | CCc1ccccc1NC(=O)COC(=O)NNC(=O)[C@H](Cc1c[nH]c2ccccc12)NC(=O)OC(C)(C)C [Compound No. 93]

IC50 (Human spleen cathepsin S; Tables 2-11, read-out: Cat S) [µM] | IC50 (Human liver cathepsin B; Tables 2-11, read-out: Cat B) [µM] | IC50 (human liver cathepsin L; Tables 2-11, read-out: Cat L) [µM] | IC50 (Human spleen cathepsin S; Table 1, read-out: IC50 Cat S) [µM] | IC50 (Human liver cathepsin B; Table 1, read-out: IC50 Cat B) [µM] | IC50 (human liver cathepsin L; Table 1, read-out: IC50 Cat L) [µM] | Structure (SMILES)
– | – | – | 3.01 | > 25 | 6.95 | CSCC[C@@H](CC(=O)NNC(=O)SCC(=O)N1CCCc2ccccc21)NC(=O)OC(C)(C)C [Compound No. 77]
≥ 25 | ≥ 25 | ≥ 25 | – | – | – | CC(C)(C)OC(=O)N[C@@H](Cc1c[nH]c2ccccc12)C(=O)N/N=C/c1ccccc1 [Compound No. 123]
≥ 25 | ≥ 25 | ≥ 25 | – | – | – | Cc1ccc(S(=O)(=O)NNC(=O)[C@H](Cc2ccc(OC(=O)OC(C)(C)C)cc2)NC(=O)OC(C)(C)C)cc1 [Compound No. 122]
≥ 25 | ≥ 25 | ≥ 25 | – | – | – | CC(C)(C)OC(=O)N[C@@H](Cc1c[nH]c2ccccc12)C(=O)NNC(=O)[C@@H](Cc1c[nH]c2ccccc12)NC(=O)OC(C)(C)C [Compound No. 117]
– | – | – | 2.15 | 14.3 | 1.27 | CCc1ccccc1NC(=O)CSC(=O)NNC(=O)[C@H](CCCCNC(=O)OCc1ccccc1)NC(=O)OC(C)(C)C [Compound No. 58]
– | – | – | 3.32 | 3.67 | 13.7 | CCc1ccccc1NC(=O)CSC(=O)NNC(=O)[C@@H](NC(=O)OC(C)(C)C)C(C)OCc1ccccc1 (stereo partly drawn) [Compound No. 44]
– | – | – | > 25 | > 25 | > 25 | CC(C)(C)OC(=O)N[C@@H](CCC(=O)NC1c2ccccc2Oc2ccccc21)C(=O)NNC(=O)SCC(=O)N1CCCc2ccccc21 [Compound No. 60]
4.1 | ≥ 25 | 0.806 | – | – | – | CC(C)(C)OC(=O)N[C@@H](Cc1c[nH]c2ccccc12)C(=O)NNC(=O)OCc1ccccc1 [Compound No. 94]
– | – | – | > 25 | > 25 | > 25 | C[C@@H](CO)C(=O)NNC(=O)SCC(=O)N1CCCc2ccccc21 [Compound No. 70]
– | – | – | > 25 | > 25 | > 25 | CCc1ccccc1NC(=O)CSC(=O)NNC(=O)[C@@H]1CCCN1C(=O)OC(C)(C)C [Compound No. 32]
– | – | – | 7.24 | 0.44 | 0.45 | CC(C)[C@H](NC(=O)OC(C)(C)C)C(=O)NNC(=O)SCC(=O)N1CCc2ccccc21 [Compound No. 23]
– | – | – | 5.89 | > 25 | 17.9 | CC(C)(C)OC(=O)N[C@H](COCc1ccccc1)C(=O)NNC(=O)SCC(=O)N1CCCc2ccccc21 [Compound No. 49]
– | – | – | 0.69 | 2.03 | 1.29 | CCc1ccccc1NC(=O)CSC(=O)NNC(=O)[C@H](CCSC)NC(=O)OC(C)(C)C [Compound No. 17]
– | – | – | > 25 | 11.6 | > 25 | CC(C)(C)OC(=O)N[C@@H](Cc1ncc[nH]1)C(=O)NNC(=O)SCC(=O)N1CCCc2ccccc21 [Compound No. 66]
≥ 25 | ≥ 25 | ≥ 25 | – | – | – | CC(C)(C)OC(=O)N[C@@H](Cc1c[nH]c2ccccc12)C(=O)NNC(=O)CCC(=O)N1CCCc2ccccc21 [Compound No. 115]
– | – | – | > 25 | > 25 | ≥ 25 | CCc1ccccc1NC(=O)CSC(=O)NNC(=O)[C@H](CCC(=O)O)NC(=O)OC(C)(C)C [Compound No. 27]
≥ 25 | ≥ 25 | ≥ 25 | – | – | – | CC(C)(C)OC(=O)N[C@@H](Cc1c[nH]c2ccccc12)C(=O)N/N=C/c1ccc(Cl)cc1 [Compound No. 124]

Structure (SMILES) | IC50 (Human spleen cathepsin S; Tables 2-11, read-out: Cat S) [µM] | IC50 (Human liver cathepsin B; Tables 2-11, read-out: Cat B) [µM] | IC50 (human liver cathepsin L; Tables 2-11, read-out: Cat L) [µM] | IC50 (Human spleen cathepsin S; Table 1, read-out: IC50 Cat S) [µM] | IC50 (Human liver cathepsin B; Table 1, read-out: IC50 Cat B) [µM] | IC50 (human liver cathepsin L; Table 1, read-out: IC50 Cat L) [µM]
CCc1ccccc1NC(=O)CSC(=O)NNC(=O)[C@@H](Cc1c[nH]c2ccccc12)NC(=O)OC(C)(C)C [Compound No. 16] | – | – | – | > 25 | > 25 | > 25
COC(=O)CSC(=O)NNC(=O)[C@H](Cc1c[nH]c2ccccc12)NC(=O)OC(C)(C)C [Compound No. 15] | – | – | – | 0.57 | 6.33 | 0.098
